Measurements: ChEMBL document CHEMBL1806475, “Phosphopeptides with improved cellular uptake properties as ligands for the polo-box domain of polo-like kinase 1” (Bioorg Med Chem Lett, 2011)
Where a SMILES comes first, the peptide text is derived from it.

What was measured:
[1] = test system: HT-29; test: Cellular uptake in human HT-29 cell vesicular compartments at 25 uM after 60 mins using Hoechst H33342 dye by fluorescence microscopy analysis; assay type: ADME, cell-based; conditions: ht-29, 1 h
[2] = test system: MCF7; test: Cellular uptake in human MCF7 cell vesicular compartments at 50 uM after 60 mins using Hoechst H33342 dye by fluorescence microscopy analysis; assay type: ADME, cell-based; conditions: mcf7, 1 h
[3] = test system: HeLa; test: Cellular uptake in human HeLa cells at 25 uM after 60 mins by flow cytometry; assay type: ADME, cell-based; conditions: 1 h
[4] = test system: HT-29; test: Cellular uptake in human HT-29 cells at 25 uM after 60 mins by flow cytometry; assay type: ADME, cell-based; conditions: ht-29, 1 h
[5] = target: Serine/threonine-protein kinase PLK1 (Homo sapiens, UniProt P53350); test: Binding affinity to human polo-box domain of PLK1 after 1 hr by fluorescence polarization-based assay
[6] = test system: MCF7; test: Cellular uptake in human MCF7 cells at 25 uM after 60 mins by flow cytometry; assay type: ADME, cell-based; conditions: mcf7, 1 h
[7] = test system: HeLa; test: Cellular uptake in human HeLa cell vesicular compartments at 50 uM after 60 mins using Hoechst H33342 dye by fluorescence microscopy analysis; assay type: ADME, cell-based; conditions: 1 h
[8] = test system: MCF7; test: Toxicity in human MCF7 cells at up to 100 uM after 24 hrs; assay type: cell-based; conditions: mcf7, 24 h
[9] = test system: HT-29; test: Cellular uptake in human HT-29 cells at 25 uM after 60 mins by flow cytometry relative to cellular uptake in human HeLa cells; assay type: ADME, cell-based; conditions: ht-29, 1 h
[10] = test system: MCF7; test: Cellular uptake in human MCF7 cell nucleus at 50 uM after 60 mins using Hoechst H33342 dye by fluorescence microscopy analysis; assay type: ADME, cell-based; conditions: mcf7, 1 h
[11] = test system: MCF7; test: Cellular uptake in human MCF7 cells at 25 uM after 60 mins by flow cytometry relative to cellular uptake in human HeLa cells; assay type: ADME, cell-based; conditions: mcf7, 1 h
[12] = test system: HT-29; test: Toxicity in human HT-29 cells at up to 100 uM after 24 hrs; assay type: cell-based; conditions: ht-29, 24 h
[13] = test system: HeLa; test: Toxicity in human HeLa cells at up to 100 uM after 24 hrs; assay type: cell-based
[14] = test system: HT-29; test: Cellular uptake in human HT-29 cells assessed per mg of protein; assay type: ADME, cell-based
[15] = test system: FaDu; test: Cellular uptake in human FADU cells assessed per mg of protein; assay type: ADME, cell-based

Sequence of Serine/threonine-protein kinase PLK1 (P53350 whole entry, the tested form may be a part): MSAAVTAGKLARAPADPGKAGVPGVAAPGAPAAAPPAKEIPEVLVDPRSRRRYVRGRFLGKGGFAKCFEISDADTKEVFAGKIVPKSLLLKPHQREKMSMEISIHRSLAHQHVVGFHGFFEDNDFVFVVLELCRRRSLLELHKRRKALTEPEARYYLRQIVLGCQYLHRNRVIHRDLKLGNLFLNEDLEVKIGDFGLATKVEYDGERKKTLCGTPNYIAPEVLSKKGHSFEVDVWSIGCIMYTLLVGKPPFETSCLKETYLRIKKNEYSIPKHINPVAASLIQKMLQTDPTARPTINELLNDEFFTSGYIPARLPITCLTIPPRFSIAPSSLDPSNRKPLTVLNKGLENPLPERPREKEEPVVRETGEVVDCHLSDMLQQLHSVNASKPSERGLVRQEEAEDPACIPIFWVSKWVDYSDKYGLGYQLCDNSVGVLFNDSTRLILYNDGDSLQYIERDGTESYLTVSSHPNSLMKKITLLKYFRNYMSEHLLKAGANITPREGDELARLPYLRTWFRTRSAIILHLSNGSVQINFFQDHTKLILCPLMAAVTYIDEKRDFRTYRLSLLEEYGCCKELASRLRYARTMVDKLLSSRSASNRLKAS

SMILES: CSCC[C@H](NC(=O)c1ccc2c(c1)C1(OC2=O)c2ccc(O)cc2Oc2cc(O)ccc21)C(=O)N[C@@H](CCC(N)=O)C(=O)N[C@@H](CO)C(=O)N[C@H](C(=O)N1CCC[C@H]1C(=O)N[C@@H](CC(C)C)C(=O)O)[C@@H](C)OP(=O)(O)O
- Drug uptake [1]: Not Active
- Drug uptake [2]: Not Active
- Drug uptake [3]: Not Active
- Drug uptake [4]: Active
- Kd [5]: 0.093 µM
- Drug uptake [6]: Not Active
- Drug uptake [7]: Not Active

SMILES: CC[C@H](C)[C@H](NC(=O)[C@H](C)NC(=O)[C@@H](NC(=O)[C@H](CCC(N)=O)NC(=O)[C@@H]1CCCN1C(=O)[C@H](Cc1ccccc1)NC(=O)[C@@H](NC(=O)[C@H](Cc1cnc[nH]1)NC(=O)[C@H](Cc1ccccc1)NC(=O)[C@H](CCCCNC(=O)[C@H](C)NC(=O)[C@H](Cc1ccccc1)NC(=O)[C@H](CCCCN)NC(=O)[C@H](CCCNC(=N)N)NC(=O)[C@H](CCCCN)NC(=O)[C@H](CCCCN)NC(=O)[C@H](CCCCN)NC(=O)[C@@H]1CCCN1C(=O)[C@H](C)NC(=O)[C@H](CCCCN)NC(=O)[C@H](CCCNC(=N)N)NC(=O)[C@H](CCCCN)NC(=O)[C@@H](N)CCCCN)NC(=O)[C@H](CC(C)C)NC(=O)[C@@H]1CCCN1C(=O)[C@@H](NC(=O)[C@H](CO)NC(=O)[C@H](CCC(N)=O)NC(=O)[C@H](CCSC)NC(=O)c1ccc2c(c1)C1(OC2=O)c2ccc(O)cc2Oc2cc(O)ccc21)[C@@H](C)OP(=O)(O)O)[C@@H](C)O)[C@@H](C)O)C(=O)NCC(=O)N[C@H](C(=O)NCC(=O)N[C@@H](C)C(=O)N1CCC[C@H]1C(N)=O)C(C)C (HELM PEPTIDE1{[O=C1OC2(c3ccc(O)cc3Oc3cc(O)ccc32)c2cc(C(=O)[*:2])ccc21].M.Q.S.[C[C@@H](OP(=O)(O)O)[C@H](N[*:1])C(=O)[*:2]].P.L.K.F.H.T.F.P.Q.T.A.I.G.V.G.A.P.[am]}|PEPTIDE2{K.K.R.K.A.P.K.K.K.R.K.F.A}$PEPTIDE1,PEPTIDE2,8:R3-13:R2$$$V2.0)
- Drug uptake [1]: Active
- Drug uptake [2]: Active
- Drug uptake [3]: Active
- Activity [8]: Non-toxic
- Drug uptake [9]: 15%
- Drug uptake [10]: Active
- Drug uptake [4]: Active
- Drug uptake [11]: 15%
- Kd [5]: 0.326 µM
- Activity [12]: Non-toxic
- Drug uptake [6]: Active
- Drug uptake [7]: Active
- Activity [13]: Non-toxic

SMILES: CSCC[C@H](NC(=O)c1ccc([18F])cc1)C(=O)N[C@@H](CCC(N)=O)C(=O)N[C@@H](CO)C(=O)N[C@H](C(=O)N1CCC[C@H]1C(=O)N[C@@H](CC(C)C)C(=O)O)[C@@H](C)OP(=O)(O)O
- Drug uptake [14]: < 1 %ID
- Drug uptake [15]: < 1 %ID

SMILES: CC[C@H](C)[C@H](NC(=O)[C@H](CCCCN)NC(=O)[C@H](CC(N)=O)NC(=O)[C@H](CCCN=C(N)N)NC(=O)[C@H](Cc1ccccc1)NC(=O)[C@H](CCCCN)NC(=O)[C@H](CCCN=C(N)N)NC(=O)[C@H](CC(C)C)NC(=O)[C@H](CCCN=C(N)N)NC(=O)[C@H](CCCCN)NC(=O)[C@H](CCCN=C(N)N)NC(=O)[C@H](CC(C)C)NC(=O)CNC(=O)[C@H](CC(C)C)NC(=O)[C@@H]1CCCN1C(=O)[C@@H](NC(=O)[C@H](CO)NC(=O)[C@H](CCC(N)=O)NC(=O)[C@H](CCSC)NC(=O)c1ccc2c(c1)C1(OC2=O)c2ccc(O)cc2Oc2cc(O)ccc21)[C@@H](C)OP(=O)(O)O)C(=O)N[C@@H](CCCCN)C(=O)N[C@@H](CCC(=O)O)C(=O)N[C@@H](CCCCN)C(N)=O (HELM PEPTIDE1{[O=C1OC2(c3ccc(O)cc3Oc3cc(O)ccc32)c2cc(C(=O)[*:2])ccc21].M.Q.S.[C[C@@H](OP(=O)(O)O)[C@H](N[*:1])C(=O)[*:2]].P.L.G.L.R.K.R.L.R.K.F.R.N.K.I.K.E.K.[am]}$$$$V2.0)
- Drug uptake [1]: Active
- Drug uptake [2]: Active
- Drug uptake [3]: Active
- Activity [8]: Non-toxic
- Drug uptake [9]: 15%
- Drug uptake [4]: Active
- Drug uptake [11]: 15%
- Kd [5]: 0.256 µM
- Activity [12]: Non-toxic
- Drug uptake [6]: Active
- Drug uptake [7]: Active
- Activity [13]: Non-toxic
